This is an account of results in patent publication EP0684822B1, “CARBOCYCLIC DEOXYGUANOSINE ANALOGS FOR THE TREATMENT OF VIRAL INFECTIONS” (SOUTHERN RESEARCH INSTITUTE, priority 1993, dated 1994).

Assay [1] concerns the target T1, HSV DNA polymerase (Human herpesvirus 1, UniProt P04293).
T1 construct: HSV DNA polymerase was purified from H.Ep.-2 cells infected with HSV-1; made in house; host or cells: H.Ep.-2 cells infected with HSV-1
The assay can be described thus: Inhibition of [3H]dGTP incorporation into DNA by purified HSV DNA polymerase. The format is biochemical, HSV-1. Particulars: for IC50: incorporation of 1 µM [3H]dGTP into DNA. The method, then:
(§1) HSV DNA polymerase was purified from H.Ep.-2 cells infected with HSV-1. Approximately 4 x 10^8 cells were infected with virus at a multiplicity of infection of 10 CCID50/cell. After a 1 hr adsorption period, the unattached virus was waxhed from the cells and the cultures were returned to the incubator at 37°C for another 8 hr. The cells were collected by centrifugation and mixed with a 0.3 M potassium phosphate buffer, pH 7.5, containing 0.3% Triton X-100 and 10% glycerol. The HSV DNA polymerase was purified approximately 288-fold from this crude extract, as described by Derse et al. (J. Biol. Chem. 257:10251, 1982). The specific activity of the HSV DNA polymerase was 4140 units/mg protein. Human DNA polymerases, a, β, and γ, were purified from 5.0 ml of packed K562 cells grown in cell culture as previously described (Parker et al., J. Biol. Chem. 266:1754, 1991). The specific activities of DNA polymerases α, β, and γ used in these studies were approximately 34, 1600, and 8 units/mg protein, respectively. One unit of enzyme activity is defined as the amount of enzyme needed to incorporate 1 nmol of [^3H]dGTP into acid-precipitable material per hour at 37°C, using gapped DNA as a template. HSV DNA polymerase activity was measured in 50 µl volumes containing 50 mM Tris, pH 8.0, 3 mM MgCl2, 0.5 mM dithiothreitol, 0.2 mg/ml bovine serum albumin, 0.2 M KCl, 12.5 µg/ml gapped DNA, 10 µM [^3H]dGTP (12 Ci/mmol), and 100 µM each of dATP, dCTP, and TTP. DNA polymerase α activity was measured in 50 µl volumes containing 50 mM Tris, pH 8.0, 1 mg/ml bovine serum albumin, 10 mM MgCl2, 1 mM dithiothreitol, 100 µg/ml gapped duplex DNA, 10 µM [^3H]dGTP (1 Ci/mmol), and 50 µM of each dATP, dCTP and TTP. DNA polymerase β and γ activities were measured as described for DNA polymerase α, except that the reactions included 100 mM KCl. After incubation for the desired time, the DNA in each sample was precipitated onto glass fiber filters using a 5% trichloroacetic acid solution containing 10 mM pyrophosphate. The filters were then washed three times with this solution followed by two washes with 95% ethanol, dried, and counted for radioactivity.
(§2) 2'CdG-TP was a potent competitive inhibitor of the incorporation of [^3H]dGTP into DNA by both the HSV DNA polymerase and the host DNA polymerase α (Fig. 9).
(§3) Under similar incubation conditions, the concentration of D-2'CdG-TP required to inhibit the incorporation of 1 µM [^3H]dGTP into the DNA by 50% was 2 µM with DNA polymerase a, but was 2200 and 300 µM for DNA polymerase β and γ, respectively (Table 4). […]

Assay [2] addresses T2, DNA polymerase α (Homo sapiens, UniProt P09884).
T2 construct: Human DNA polymerases, a, β, and γ, were purified from 5.0 ml of packed K562 cells; endogenous in cells; host or cells: K562 cells
Briefly: Inhibition of [3H]dGTP incorporation into DNA by host DNA polymerase α. The format is biochemical. Particulars: for IC50: incorporation of 1 µM [3H]dGTP into DNA. The method, then:
as §1, §2, §3

The target in assay [3] is T3, DNA polymerase γ (Homo sapiens, UniProt P54098).
T3 sequence (P54098 26-1239): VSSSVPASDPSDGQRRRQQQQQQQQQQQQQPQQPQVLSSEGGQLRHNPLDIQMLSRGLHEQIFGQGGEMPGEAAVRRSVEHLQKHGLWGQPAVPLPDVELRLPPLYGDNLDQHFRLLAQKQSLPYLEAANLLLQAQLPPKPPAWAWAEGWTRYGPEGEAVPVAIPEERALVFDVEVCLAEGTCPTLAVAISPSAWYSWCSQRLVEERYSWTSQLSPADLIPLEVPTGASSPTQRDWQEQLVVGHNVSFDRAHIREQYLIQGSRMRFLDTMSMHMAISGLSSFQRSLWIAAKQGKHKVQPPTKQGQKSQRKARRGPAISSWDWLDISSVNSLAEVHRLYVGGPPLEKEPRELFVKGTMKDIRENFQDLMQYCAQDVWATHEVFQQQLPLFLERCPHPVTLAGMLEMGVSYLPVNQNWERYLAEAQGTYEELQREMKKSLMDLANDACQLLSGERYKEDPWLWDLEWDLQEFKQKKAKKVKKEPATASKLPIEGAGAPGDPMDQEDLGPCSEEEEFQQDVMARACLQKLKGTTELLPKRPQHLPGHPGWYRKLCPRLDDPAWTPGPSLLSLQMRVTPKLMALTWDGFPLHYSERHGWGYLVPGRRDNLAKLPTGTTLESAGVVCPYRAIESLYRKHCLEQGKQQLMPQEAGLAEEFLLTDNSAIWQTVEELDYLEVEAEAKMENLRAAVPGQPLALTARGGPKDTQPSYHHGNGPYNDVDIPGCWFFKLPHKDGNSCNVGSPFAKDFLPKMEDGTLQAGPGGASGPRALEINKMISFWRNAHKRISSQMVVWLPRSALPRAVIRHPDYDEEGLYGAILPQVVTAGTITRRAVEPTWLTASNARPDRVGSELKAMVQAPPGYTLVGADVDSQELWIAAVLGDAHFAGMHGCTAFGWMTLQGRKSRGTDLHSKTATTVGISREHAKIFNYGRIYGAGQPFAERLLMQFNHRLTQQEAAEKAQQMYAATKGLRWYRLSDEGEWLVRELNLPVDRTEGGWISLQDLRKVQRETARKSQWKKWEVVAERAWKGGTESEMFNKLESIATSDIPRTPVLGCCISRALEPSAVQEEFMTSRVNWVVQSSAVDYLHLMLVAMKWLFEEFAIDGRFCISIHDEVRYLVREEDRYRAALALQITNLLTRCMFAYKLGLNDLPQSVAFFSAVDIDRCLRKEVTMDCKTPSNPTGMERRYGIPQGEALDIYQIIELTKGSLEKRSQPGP
T3 sequence (Q9UHN1 26-485 partner): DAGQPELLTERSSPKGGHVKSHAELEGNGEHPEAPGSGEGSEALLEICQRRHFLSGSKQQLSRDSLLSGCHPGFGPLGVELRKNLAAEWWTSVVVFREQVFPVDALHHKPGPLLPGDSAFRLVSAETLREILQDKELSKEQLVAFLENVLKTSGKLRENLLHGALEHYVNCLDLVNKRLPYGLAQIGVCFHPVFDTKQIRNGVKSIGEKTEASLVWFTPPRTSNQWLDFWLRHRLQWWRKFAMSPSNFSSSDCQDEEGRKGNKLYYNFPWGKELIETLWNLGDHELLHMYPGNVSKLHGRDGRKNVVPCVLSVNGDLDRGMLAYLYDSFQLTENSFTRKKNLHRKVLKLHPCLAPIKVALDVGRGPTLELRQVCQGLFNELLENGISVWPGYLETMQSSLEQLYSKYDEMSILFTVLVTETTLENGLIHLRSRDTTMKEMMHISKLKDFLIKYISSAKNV
Briefly: Inhibition of [3H]dGTP incorporation into DNA by DNA polymerase γ. The format is biochemical. The settings on record: incorporation of 1 µM [3H]dGTP into DNA. On the procedure: (§4) HSV DNA polymerase was purified from H.Ep.-2 cells infected with HSV-1. Approximately 4 x 10^8 cells were infected with virus at a multiplicity of infection of 10 CCID50/cell. After a 1 hr adsorption period, the unattached virus was waxhed from the cells and the cultures were returned to the incubator at 37°C for another 8 hr. The cells were collected by centrifugation and mixed with a 0.3 M potassium phosphate buffer, pH 7.5, containing 0.3% Triton X-100 and 10% glycerol. The HSV DNA polymerase was purified approximately 288-fold from this crude extract, as described by Derse et al. (J. Biol. Chem. 257:10251, 1982). The specific activity of the HSV DNA polymerase was 4140 units/mg protein. […] HSV DNA polymerase activity was measured in 50 µl volumes containing 50 mM Tris, pH 8.0, 3 mM MgCl2, 0.5 mM dithiothreitol, 0.2 mg/ml bovine serum albumin, 0.2 M KCl, 12.5 µg/ml gapped DNA, 10 µM [^3H]dGTP (12 Ci/mmol), and 100 µM each of dATP, dCTP, and TTP. DNA polymerase α activity was measured in 50 µl volumes containing 50 mM Tris, pH 8.0, 1 mg/ml bovine serum albumin, 10 mM MgCl2, 1 mM dithiothreitol, 100 µg/ml gapped duplex DNA, 10 µM [^3H]dGTP (1 Ci/mmol), and 50 µM of each dATP, dCTP and TTP. DNA polymerase β and γ activities were measured as described for DNA polymerase α, except that the reactions included 100 mM KCl. […]

Assay [4] addresses T4, DNA polymerase β (Homo sapiens, UniProt P06746).
T4 construct: Human DNA polymerases, a, β, and γ, were purified from 5.0 ml of packed K562 cells; endogenous in cells; host or cells: K562 cells
The assay can be described thus: Inhibition of [3H]dGTP incorporation into DNA by DNA polymerase β. The format is biochemical. Particulars: incorporation of 1 µM [3H]dGTP into DNA. The method, then: as §4

A word on the Ki: it is a dissociation constant, usually derived from enzyme kinetics or from competition with a known ligand. A higher Ki goes with weaker binding. What is called IC50 is the concentration needed to halve the response being measured. Read a low IC50 as inhibition by little substance.

T2 sequence (P09884 whole entry): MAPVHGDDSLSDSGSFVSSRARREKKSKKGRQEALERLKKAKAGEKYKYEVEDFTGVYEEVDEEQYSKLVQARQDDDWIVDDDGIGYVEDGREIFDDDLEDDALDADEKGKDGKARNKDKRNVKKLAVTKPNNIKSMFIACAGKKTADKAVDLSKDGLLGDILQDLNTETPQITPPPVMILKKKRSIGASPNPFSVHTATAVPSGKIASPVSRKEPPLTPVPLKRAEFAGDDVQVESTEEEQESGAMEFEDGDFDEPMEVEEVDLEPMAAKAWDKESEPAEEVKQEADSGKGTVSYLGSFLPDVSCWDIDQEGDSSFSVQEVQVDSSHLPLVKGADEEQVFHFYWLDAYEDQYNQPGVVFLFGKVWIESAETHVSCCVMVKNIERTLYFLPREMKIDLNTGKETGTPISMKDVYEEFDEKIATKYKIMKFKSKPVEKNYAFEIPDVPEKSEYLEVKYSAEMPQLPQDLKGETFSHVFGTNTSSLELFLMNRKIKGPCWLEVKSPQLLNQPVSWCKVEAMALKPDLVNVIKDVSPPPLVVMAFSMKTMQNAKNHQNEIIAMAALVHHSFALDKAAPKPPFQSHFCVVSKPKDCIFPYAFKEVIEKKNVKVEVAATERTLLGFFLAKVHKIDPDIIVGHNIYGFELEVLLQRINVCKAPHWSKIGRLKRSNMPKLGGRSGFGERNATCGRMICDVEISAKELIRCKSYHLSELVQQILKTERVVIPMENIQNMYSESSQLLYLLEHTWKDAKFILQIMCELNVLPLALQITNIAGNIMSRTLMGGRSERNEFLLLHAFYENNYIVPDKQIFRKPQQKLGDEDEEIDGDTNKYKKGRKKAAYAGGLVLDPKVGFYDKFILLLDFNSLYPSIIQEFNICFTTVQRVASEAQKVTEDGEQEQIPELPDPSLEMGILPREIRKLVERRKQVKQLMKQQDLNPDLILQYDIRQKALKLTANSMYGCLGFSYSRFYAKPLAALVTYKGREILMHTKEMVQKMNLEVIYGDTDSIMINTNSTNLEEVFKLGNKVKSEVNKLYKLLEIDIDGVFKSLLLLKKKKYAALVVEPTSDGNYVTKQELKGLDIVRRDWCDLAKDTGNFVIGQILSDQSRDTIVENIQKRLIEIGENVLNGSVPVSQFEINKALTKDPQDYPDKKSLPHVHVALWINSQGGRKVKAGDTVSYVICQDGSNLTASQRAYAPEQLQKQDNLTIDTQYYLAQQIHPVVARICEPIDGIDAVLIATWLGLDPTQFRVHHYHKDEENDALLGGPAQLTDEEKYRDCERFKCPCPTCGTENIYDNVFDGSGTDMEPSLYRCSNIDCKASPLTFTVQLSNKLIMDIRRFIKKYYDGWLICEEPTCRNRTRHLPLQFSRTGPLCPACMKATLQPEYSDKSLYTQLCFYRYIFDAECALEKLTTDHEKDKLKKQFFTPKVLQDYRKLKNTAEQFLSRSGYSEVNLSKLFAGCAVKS
T2 sequence (Q14181 whole entry partner): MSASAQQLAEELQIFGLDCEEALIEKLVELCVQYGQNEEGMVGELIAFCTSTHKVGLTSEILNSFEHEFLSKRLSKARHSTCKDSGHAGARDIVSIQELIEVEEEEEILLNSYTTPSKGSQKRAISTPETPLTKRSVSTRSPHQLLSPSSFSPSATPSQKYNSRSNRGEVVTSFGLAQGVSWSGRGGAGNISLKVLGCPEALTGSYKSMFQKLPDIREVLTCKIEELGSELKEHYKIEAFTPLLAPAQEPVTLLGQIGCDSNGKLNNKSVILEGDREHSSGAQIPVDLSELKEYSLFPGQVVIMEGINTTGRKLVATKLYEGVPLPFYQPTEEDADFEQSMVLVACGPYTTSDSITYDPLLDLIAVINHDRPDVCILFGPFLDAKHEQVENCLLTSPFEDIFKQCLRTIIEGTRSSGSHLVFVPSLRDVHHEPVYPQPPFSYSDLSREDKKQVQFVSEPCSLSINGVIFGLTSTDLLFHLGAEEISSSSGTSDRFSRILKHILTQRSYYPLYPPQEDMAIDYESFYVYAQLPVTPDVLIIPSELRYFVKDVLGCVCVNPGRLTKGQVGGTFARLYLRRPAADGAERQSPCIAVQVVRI
T2 sequence (P49642 whole entry partner): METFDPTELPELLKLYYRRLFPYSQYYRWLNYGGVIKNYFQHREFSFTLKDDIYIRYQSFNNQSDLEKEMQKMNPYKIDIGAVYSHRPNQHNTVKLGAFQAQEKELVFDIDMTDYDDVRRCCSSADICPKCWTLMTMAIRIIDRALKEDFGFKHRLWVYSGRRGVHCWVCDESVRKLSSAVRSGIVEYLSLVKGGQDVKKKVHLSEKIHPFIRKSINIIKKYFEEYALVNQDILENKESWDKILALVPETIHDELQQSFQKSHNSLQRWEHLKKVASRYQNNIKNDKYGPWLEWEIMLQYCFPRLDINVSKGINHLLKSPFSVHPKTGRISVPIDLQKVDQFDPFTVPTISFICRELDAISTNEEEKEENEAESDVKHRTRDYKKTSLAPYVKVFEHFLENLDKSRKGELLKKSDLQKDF
T2 sequence (P49643 whole entry partner): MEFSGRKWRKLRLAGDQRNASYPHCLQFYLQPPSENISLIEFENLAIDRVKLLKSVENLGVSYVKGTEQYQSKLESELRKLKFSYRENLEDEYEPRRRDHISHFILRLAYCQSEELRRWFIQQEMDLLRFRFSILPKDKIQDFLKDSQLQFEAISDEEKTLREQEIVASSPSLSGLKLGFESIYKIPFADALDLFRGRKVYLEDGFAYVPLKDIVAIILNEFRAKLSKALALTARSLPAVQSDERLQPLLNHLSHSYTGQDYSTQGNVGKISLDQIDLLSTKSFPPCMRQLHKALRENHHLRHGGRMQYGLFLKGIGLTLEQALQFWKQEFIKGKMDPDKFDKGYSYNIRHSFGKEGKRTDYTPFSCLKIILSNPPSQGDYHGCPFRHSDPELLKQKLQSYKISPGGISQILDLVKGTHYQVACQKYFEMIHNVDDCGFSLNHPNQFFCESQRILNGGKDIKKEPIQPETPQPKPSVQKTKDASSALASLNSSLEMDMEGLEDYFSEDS
T1 sequence (P10226 whole entry): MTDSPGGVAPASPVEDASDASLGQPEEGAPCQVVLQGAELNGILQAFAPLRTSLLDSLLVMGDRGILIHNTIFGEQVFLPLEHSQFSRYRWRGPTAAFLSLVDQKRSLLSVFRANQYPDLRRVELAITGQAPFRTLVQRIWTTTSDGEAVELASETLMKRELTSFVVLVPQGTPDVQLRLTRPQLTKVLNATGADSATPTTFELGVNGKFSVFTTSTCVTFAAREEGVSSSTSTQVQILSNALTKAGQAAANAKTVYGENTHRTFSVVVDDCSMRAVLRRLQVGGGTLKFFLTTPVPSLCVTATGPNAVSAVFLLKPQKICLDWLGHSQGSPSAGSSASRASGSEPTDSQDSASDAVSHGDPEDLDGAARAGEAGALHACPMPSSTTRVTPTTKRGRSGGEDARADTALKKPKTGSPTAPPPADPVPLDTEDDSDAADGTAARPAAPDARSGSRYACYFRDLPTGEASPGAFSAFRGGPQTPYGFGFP
T1 sequence (P04293 whole entry): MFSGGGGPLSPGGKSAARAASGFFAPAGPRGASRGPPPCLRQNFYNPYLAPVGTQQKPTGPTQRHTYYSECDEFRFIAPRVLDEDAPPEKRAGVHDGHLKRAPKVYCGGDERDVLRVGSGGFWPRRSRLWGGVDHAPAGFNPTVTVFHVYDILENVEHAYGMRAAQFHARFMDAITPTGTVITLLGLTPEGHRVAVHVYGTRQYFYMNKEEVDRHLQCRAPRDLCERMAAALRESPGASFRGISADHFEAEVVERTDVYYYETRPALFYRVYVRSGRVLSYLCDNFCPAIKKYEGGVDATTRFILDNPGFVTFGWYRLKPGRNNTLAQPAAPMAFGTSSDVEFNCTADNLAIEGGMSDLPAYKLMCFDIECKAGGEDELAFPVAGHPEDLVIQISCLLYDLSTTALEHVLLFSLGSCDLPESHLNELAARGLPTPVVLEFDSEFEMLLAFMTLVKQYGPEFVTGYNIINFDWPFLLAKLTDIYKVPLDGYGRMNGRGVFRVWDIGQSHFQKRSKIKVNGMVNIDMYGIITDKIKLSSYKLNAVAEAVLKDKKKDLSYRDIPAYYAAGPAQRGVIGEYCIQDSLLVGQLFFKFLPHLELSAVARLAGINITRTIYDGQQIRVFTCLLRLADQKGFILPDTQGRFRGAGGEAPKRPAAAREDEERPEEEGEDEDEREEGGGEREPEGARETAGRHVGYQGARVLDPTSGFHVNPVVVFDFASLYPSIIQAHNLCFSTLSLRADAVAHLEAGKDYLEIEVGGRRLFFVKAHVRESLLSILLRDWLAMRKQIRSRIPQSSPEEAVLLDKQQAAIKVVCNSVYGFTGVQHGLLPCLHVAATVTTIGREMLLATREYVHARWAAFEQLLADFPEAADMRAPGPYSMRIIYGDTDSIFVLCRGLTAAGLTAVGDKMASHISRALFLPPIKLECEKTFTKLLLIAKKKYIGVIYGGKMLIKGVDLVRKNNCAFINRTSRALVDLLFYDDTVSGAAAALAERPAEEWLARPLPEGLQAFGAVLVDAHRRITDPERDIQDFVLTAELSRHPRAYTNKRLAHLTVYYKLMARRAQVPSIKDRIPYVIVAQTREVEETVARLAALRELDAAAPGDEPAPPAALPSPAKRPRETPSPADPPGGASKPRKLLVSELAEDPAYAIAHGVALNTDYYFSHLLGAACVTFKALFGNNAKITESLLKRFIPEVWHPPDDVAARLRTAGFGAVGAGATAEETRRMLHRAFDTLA

On to `Nc1nc2c(ncn2[C@@H]2C[C@H](COP(=O)(O)OP(=O)(O)OP(=O)(O)O)[C@@H](O)C2)c(=O)[nH]1` [D-2'CdG-TP], for which the Ki/Km ratio entry in assay [1] (Km of dGTP) and in assay [2] (Km of dGTP) was “approximately 1” throughout. In addition, the Ki amounted to 0.35 µM in assay [1] (competitive with [3H]dGTP) and 0.95 µM in assay [2] (competitive with [3H]dGTP). For the same compound, the results for the IC50 in assay [1], in assay [2] and in assay [3] were 1.5 µM, 2 µM and 300 µM, respectively.
Take `Nc1nc2c(ncn2[C@H]2C[C@@H](COP(=O)(O)OP(=O)(O)OP(=O)(O)O)[C@H](O)C2)c(=O)[nH]1` [L-2'CdG-TP]: the IC50 in assay [1] stood at 460 µM; in assay [2] it was 470 µM; in assay [4], 1400 µM; in assay [3], 215 µM.
